The values that follow come from patent US8946426B2, “Substituted bicyclic heterocyclic compounds as gamma secretase modulators” (Janssen Pharmaceuticals, Inc., priority 2009, dated 2015).

Assay [1] relates to Aβ42. As to the kind of experiment: Method 2: Aβ42 Alphalisa in supernatant of SKNBE2 cells carrying APP 695-wild type (Table 7c). In kind it is cell-based. To be noted: Method 2, Alphalisa, overnight incubation. Summed up: (§1)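 Secreted Aβ measured by AlphaLISA sandwich immunoassay after overnight compound exposure (37° C, 10^4 cells/well) of APP695-wild-type SKNBE2 cells. Aβtotal pairs antibodies JRF/AβN/25 and biotinylated 4G8; Aβ42 pairs JRF/cAβ42/26 and JRF/AβN/25. Values normalised to compound-free control and fitted with a four-parameter equation for IC50.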
For orientation: Alpha assays give light when donor and acceptor beads are brought close together.

For another assay, the system named is Aβtotal. As to the kind of experiment: Method 2: Aβtotal Alphalisa in supernatant of SKNBE2 cells carrying APP 695-wild type (Table 7c). In kind it is cell-based. To be noted: Method 2, Alphalisa, overnight incubation. The method in brief:
as §1

Assay [2] relates to Aβ42. The assay is described as follows: In vivo efficacy: Aβ42 lowering in brain after single oral dose (Table 8). To be noted: mouse brain soluble fraction, ELISA, compared to untreated animals. An excerpt: To determine whether acute administration of an Aβ42 lowering agent would reduce Aβ42 levels in vivo, non-transgenic rodents, e.g. mice or rats were used. Alternatively, two to three month old Tg2576 mice expressing APP695 containing the “Swedish” variant can be used or a transgenic mouse model developed by Dr. Fred Van Leuven (K.U.Leuven, Belgium) and co-workers, with neuron-specific expression of a clinical mutant of the human amyloid precursor protein [V7171] (Moechars et al., 1999 J. Biol. Chem. 274, 6483). Young transgenic mice have high levels of Aβ in the brain but no detectable Aβ deposition. At approximately 6-8 months of age, the transgenic mice start to display spontaneous, progressive accumulation of β-amyloid (Aβ) in the brain, eventually resulting in amyloid plaques within the subiculum, hippocampus and cortex. Animals treated with the Aβ42 lowering agent were examined and compared to those untreated or treated with vehicle and brain levels of soluble Aβ42 and total Aβ would be quantitated by standard techniques, for example, using ELISA. Treatment periods varied from hours to days and were adjusted based on the results of the Aβ42 lowering once a time course of onset of effect could be established.
A typical protocol for measuring Aβ42 lowering in vivo is shown but it is only one of many variations that could be used to optimize the levels of detectable Aβ. For example, Aβ42 lowering compounds were formulated in 20% of Captisol® (a sulfobutyl ether of β-cyclodextrin) in water or 20% hydroxypropyl β cyclodextrin. The Aβ42 lowering agents were administered as a single oral dose or by any acceptable route of administration to overnight fasted animals. After four hours, the animals were sacrificed and Aβ42 levels were analysed.
Blood was collected by decapitation and exsanguinations in EDTA-treated collection tubes. Blood was centrifuged at 1900 g for 10 min at 4° C. and the plasma recovered and flash frozen for later analysis. The brain was removed from the cranium and hindbrain. The cerebellum was removed and the left and right hemisphere were separated. The left hemisphere was stored at −18° C. for quantitative analysis of test compound levels. The right hemisphere was rinsed with phosphate-buffered saline (PBS) buffer and immediately frozen on dry ice and stored at −80° C. until homogenization for biochemical assays.
Mouse brains were resuspended in 10 volumes of 0.4% DEA (diethylamine)/50 mM NaCl pH 10 (for non-transgenic animals) or 0.1% 3-[(3-cholamidopropyl)-dimethyl-ammonio]-1-propanesulfonate (CHAPS) in tris buffered saline (TBS) (for transgenic animals) containing protease inhibitors (Roche-11873580001 or 04693159000 per gram of tissue, e.g. for 0.158 g brain, add 1.58 ml of 0.4% DEA. All samples were sonicated for 30 sec on ice at 20% power output (pulse mode). Homogenates were centrifuged at 221.300×g for 50 min. The resulting high speed supernatants were then transferred to fresh tubes and were optionally further purified before the next step. A portion of the supernatant was neutralized with 10% 0.5 M Tris-HCl and this was used to quantify Aβtotal.
The obtained supernatants were purified with Water Oasis HLB reverse phase columns (Waters Corp., Milford, Mass.) to remove non-specific immunoreactive material from the brain lysates prior subsequent Aβ detection. Using a vacuum manifold, all solutions were passed through the columns at a rate of approximately 1 ml per minute, so the vacuum pressure was adjusted accordingly throughout the procedure. Columns were preconditioned with 1 ml of 100% MeOH, before equilibration with 1 ml of H2O. Non-neutralized brain lysates were loaded onto the columns. The loaded samples were then washed twice with the first wash performed with 1 ml of 5% MeOH, and the second wash with 1 ml of 30% MeOH. Finally, the Aβ was eluted from the columns and into 100×30 mm glass tubes, with a solution of 90% MeOH with 2% NH4OH. […]
Background: In an ELISA, binding on a coated surface is turned into a signal by an enzyme label.

As to `Cc1ncoc1-c1ccc(Nc2cccc3c2nc(-c2ccc(F)cc2)n3C)nc1` [Compound 10], the concentration for half-maximal inhibition (IC50) (in general, the concentration needed to halve the response being measured) in the assay with Aβ42 [1] (Homo sapiens) was 1740 nM; with Aβtotal (Homo sapiens), more than 10000 nM. For the same compound, in the assay with Aβ42 [2], the “Aβ42 (% Ctrl)_Mean” value was found to be 106 % Ctrl.
Taken in the same sequence, the figures for `COc1cc(Nc2cccc3c2nc(CCC(F)(F)F)n3C)ccc1-c1ocnc1C` [Compound 11] were 363 nM, more than 10000 nM and 91 % Ctrl.
For `COc1cc(Nc2cccc3c2nc(-c2ccc(F)cc2)n3C)ccc1-c1ocnc1C` [Compound 12], in that order: 35 nM, 7760 nM and 56 % Ctrl.
Taken in the same sequence, the figures for `COc1cc(Nc2cccc3c2nc(-c2ccc(F)cc2)n3C)ccc1-c1cnc(C)o1` [Compound 16] were 16 nM, 8710 nM and 58 % Ctrl.
Regarding `Cc1ncc(-c2ccc(Nc3nccc4c3nc(-c3ccc(F)cc3)n4C)cc2F)o1` [Compound 17], the IC50 with Aβ42 [1] (Homo sapiens) is 166 nM; in the assay on Aβtotal (Homo sapiens), more than 10000 nM. The “Aβ42 (% Ctrl)_Mean” value in the assay with Aβ42 [2] worked out at 106 % Ctrl.
As to `Cc1ncc(-c2ccc(Nc3cccc4c3nc(-c3ccc(F)cc3)n4C(C)C)cn2)o1` [Compound 18], the concentration for half-maximal inhibition (IC50) with Aβ42 [1] (Homo sapiens) stood at 20 nM; with Aβtotal (Homo sapiens) it was 6460 nM. Besides, the “Aβ42 (% Ctrl)_Mean” value in the assay on Aβ42 [2] was found to be 54 % Ctrl.
As for `COc1cccc(-c2nc3c(Nc4ccc(-c5cnc(C)o5)nc4)cc(F)cc3n2C)c1` [Compound 105], the IC50 in the assay on Aβ42 [1] is 14 nM; with Aβtotal it was more than 10000 nM. In the assay on Aβ42 [2], the “Aβ42 (% Ctrl)_Mean” value is 104 % Ctrl.
For `COc1cc(Nc2nc(C(F)(F)F)cn3cc(C)nc23)ccc1-c1cnc(C)o1` [Compound 170], in that order: 7410 nM, more than 10000 nM and 99 % Ctrl.
Taken in the same sequence, the figures for `COc1cc(Nc2cncc3c2nc(-c2ccc(F)cc2)n3C)ccc1-c1cnc(C)o1` [Compound 186] were 41 nM, more than 10000 nM and 52 % Ctrl.
In the case of `COc1cc(Nc2cc(C(F)(F)F)nn3cc(C)nc23)ccc1-c1cnc(C)o1` [Compound 195], the IC50 was 282 nM in the assay on Aβ42 [1] and more than 10000 nM in the assay on Aβtotal. In the assay on Aβ42 [2], the “Aβ42 (% Ctrl)_Mean” value is listed as 89 % Ctrl.
